Measured values published in patent publication US20160052926A1, “NOVEL PYRIMIDINE AND PYRIDINE COMPOUNDS AND USAGE THEREOF” (HUTCHISON MEDIPHARMA LIMITED, priority 2013, published 2016).

Assays:
Recombinant human FGFR1 = Recombinant human FGFR1 (Homo sapiens, UniProt P11362); experiment: Transcreener Kinase Assay of FGFR1; format: biochemical; conditions: read-out: FGFR1 (FP) IC50
SNU-16 = experiment: Cellular Proliferation Assay (Cell Counting Kit-8), SNU-16; format: cell-based; conditions: Homo sapiens, SNU-16 cells, 72 hours
In short: (§1)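 Proliferation was read as OD at 450 nm after 1 h with CCK-8, following 72 h drug exposure at 37 °C, 5% CO2. Inhibition was calculated against cells in 0.5% DMSO minus medium blank, and the 50% point reported. The compound series (10–0.004 μM, pre-addition, in 5% DMSO) was added one day after plating KG-1, SNU-16 and RT-112 at 30,000, 5,000 and 1,000 cells/well respectively.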

KG-1 = experiment: Cellular Proliferation Assay (Cell Counting Kit-8), KG-1; format: cell-based; conditions: Homo sapiens, KG1 cells, 72 hours
In short: as §1

RT-112 = experiment: Cellular Proliferation Assay (Cell Counting Kit-8), RT-112; format: cell-based; conditions: Homo sapiens, RT-112 cells, 72 hours
In short: as §1

Recombinant human FGFR2 = Recombinant human FGFR2 (Homo sapiens, UniProt P21802); experiment: Transcreener Kinase Assay of FGFR2; format: biochemical; conditions: read-out: FGFR2 (FP) IC50
FGFR3 kinase = FGFR3 kinase (Homo sapiens, UniProt P22607); experiment: Z-Lyte Kinase Assay of FGFR3; format: biochemical
In short: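 FRET peptide-cleavage format: 1 h kinase reaction at RT (25-30[…]), then 1 h protease development, then stop and dual-emission read (Ex400, Em445/520 nm). Working solutions: kinase 0.7 μg/ml, Tyr 4 peptide 4 μM, ATP 300 uM in 1.33× buffer; eight compound concentrations from 1 μM, 2% DMSO final.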

Chain of FGFR3 kinase (P22607 23-806): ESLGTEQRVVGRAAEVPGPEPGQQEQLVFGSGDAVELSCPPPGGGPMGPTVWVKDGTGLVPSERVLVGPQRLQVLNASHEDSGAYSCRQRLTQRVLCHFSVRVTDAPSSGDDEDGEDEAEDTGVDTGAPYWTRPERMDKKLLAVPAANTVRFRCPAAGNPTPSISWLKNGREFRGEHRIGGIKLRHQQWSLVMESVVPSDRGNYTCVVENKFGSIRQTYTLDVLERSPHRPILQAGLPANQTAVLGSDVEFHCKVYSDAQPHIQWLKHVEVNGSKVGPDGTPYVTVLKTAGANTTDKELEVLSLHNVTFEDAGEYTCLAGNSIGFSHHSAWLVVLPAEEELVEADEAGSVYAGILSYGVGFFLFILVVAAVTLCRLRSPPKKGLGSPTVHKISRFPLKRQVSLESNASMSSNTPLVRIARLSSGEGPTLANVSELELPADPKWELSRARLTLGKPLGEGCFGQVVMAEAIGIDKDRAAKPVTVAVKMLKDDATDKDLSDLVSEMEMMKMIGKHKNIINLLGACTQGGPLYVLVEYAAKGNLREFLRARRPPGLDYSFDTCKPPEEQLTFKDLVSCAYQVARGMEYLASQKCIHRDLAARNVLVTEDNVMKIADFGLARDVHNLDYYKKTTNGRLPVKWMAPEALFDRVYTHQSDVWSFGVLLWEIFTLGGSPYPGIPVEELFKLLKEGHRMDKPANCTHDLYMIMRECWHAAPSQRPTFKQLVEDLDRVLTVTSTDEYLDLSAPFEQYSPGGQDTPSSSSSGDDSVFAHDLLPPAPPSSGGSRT
Chain of Recombinant human FGFR2 (P21802 22-821): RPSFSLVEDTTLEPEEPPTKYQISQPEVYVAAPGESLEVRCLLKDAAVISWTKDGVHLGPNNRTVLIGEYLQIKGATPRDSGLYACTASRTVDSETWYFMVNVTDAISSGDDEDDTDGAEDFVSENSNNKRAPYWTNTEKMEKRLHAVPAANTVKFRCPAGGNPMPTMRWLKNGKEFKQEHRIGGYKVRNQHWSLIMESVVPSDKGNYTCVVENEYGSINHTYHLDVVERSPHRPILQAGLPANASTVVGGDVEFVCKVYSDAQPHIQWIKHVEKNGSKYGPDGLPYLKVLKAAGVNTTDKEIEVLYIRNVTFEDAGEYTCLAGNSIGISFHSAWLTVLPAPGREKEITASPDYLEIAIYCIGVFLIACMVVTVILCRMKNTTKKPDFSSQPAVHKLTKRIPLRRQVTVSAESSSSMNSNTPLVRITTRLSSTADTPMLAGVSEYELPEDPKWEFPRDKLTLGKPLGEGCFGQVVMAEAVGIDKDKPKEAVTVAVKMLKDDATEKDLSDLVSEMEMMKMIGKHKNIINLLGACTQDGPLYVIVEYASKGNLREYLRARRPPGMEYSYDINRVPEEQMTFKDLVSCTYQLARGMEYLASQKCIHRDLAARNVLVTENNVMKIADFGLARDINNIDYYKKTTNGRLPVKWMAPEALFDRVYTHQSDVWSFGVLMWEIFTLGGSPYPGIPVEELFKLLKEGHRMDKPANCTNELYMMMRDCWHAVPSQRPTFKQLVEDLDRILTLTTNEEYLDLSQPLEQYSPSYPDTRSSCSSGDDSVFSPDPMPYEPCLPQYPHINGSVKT
Chain of Recombinant human FGFR1 (P11362 22-822): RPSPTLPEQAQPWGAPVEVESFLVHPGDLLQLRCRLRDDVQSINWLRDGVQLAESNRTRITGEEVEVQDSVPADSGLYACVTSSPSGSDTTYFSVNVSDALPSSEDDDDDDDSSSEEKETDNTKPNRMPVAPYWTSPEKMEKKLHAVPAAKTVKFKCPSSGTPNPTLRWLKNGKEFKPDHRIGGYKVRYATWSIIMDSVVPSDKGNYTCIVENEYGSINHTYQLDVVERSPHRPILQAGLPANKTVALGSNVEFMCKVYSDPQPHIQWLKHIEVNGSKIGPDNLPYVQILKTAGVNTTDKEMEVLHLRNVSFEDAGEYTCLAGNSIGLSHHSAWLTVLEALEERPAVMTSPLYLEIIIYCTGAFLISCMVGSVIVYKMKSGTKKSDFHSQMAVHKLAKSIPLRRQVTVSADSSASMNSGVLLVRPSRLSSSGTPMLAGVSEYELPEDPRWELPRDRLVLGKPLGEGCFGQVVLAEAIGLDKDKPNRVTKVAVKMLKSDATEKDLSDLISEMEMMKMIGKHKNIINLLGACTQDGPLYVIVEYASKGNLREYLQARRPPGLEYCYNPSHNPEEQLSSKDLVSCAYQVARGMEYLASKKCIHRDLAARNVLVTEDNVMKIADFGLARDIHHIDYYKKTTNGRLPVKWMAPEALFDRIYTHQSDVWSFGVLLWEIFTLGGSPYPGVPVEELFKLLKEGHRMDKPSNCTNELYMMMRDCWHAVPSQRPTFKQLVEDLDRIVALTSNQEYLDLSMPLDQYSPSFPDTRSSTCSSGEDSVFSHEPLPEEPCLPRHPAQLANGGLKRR

IC50 (Recombinant human FGFR1)	IC50 (SNU-16)	IC50 (Recombinant human FGFR2)	IC50 (FGFR3 kinase)	SMILES	IC50 (KG-1)	IC50 (RT-112)
18 nM	53 nM	9 nM	21 nM	CNC(=O)c1cc(COc2cnc(Nc3ccc(O)cc3)nc2)c(F)c(OC)c1 [Compound 211]	84 nM	163 nM
7 nM	17 nM	7 nM	8 nM	CCN1CCC(n2cc(Nc3ncc(CCc4cc(C(=O)NC)cc(OC)c4F)cn3)cn2)CC1 [Compound 176]	66 nM	100 nM
12 nM	2 nM	6 nM	8 nM	CNC(=O)c1cc(COc2cnc(Nc3ccc(N4C[C@@H](C)N[C@@H](C)C4)cc3)nc2)c(F)c(OC)c1 [Compound 192]	8 nM	14 nM
9 nM	14 nM	6 nM	6 nM	CNC(=O)c1cc(CCc2cnc(Nc3cnn([C@H]4CCCN(C)C4)c3)nc2)c(F)c(OC)c1 [Compound 172]	22 nM	64 nM
19 nM	8 nM	5 nM	9 nM	CCn1cc(Nc2ncc(OCc3cc(C(=O)NC)cc(OC)c3F)cn2)cn1 [Compound 181, 3-(((2-((1-ethyl-1H-pyrazol-4-yl)amino)pyrimidin-5-yl)oxy)methyl)-4-fluoro-5-methoxy-N-methylbenzamide]	26 nM	35 nM
10 nM	17 nM	5 nM	9 nM	CNC(=O)c1cc(CCc2cnc(Nc3ccc(N4C[C@@H](C)N[C@@H](C)C4)c(C)c3)nc2)c(Cl)c(OC)c1 [Compound 208]	60 nM	21 nM
23 nM	28 nM	20 nM	13 nM	CCN(CC)CCn1cc(Nc2ncc(OCc3cc(C(=O)NC)cc(OC)c3F)cn2)cn1 [Compound 189]	38 nM	23 nM
11 nM	23 nM	8 nM	14 nM	CCn1cc(Nc2ncc(OCc3c(F)c(OC)cc(C(=O)NC)c3F)cn2)cn1 [Compound 203]	11 nM	37 nM
20 nM	48 nM	10 nM	19 nM	COc1cc(C(=O)NC2CC2)cc(CCc2cnc(Nc3cnn(C)c3)nc2)c1Cl [Compound 157]	48 nM	254 nM
69 nM	202 nM	56 nM	91 nM	CCn1cc(Nc2ncc(CCc3cc(C(=O)NC)cc(OC)c3C#N)cn2)cn1 [Compound 179, 4-cyano-3-(2-(2-((1-ethyl-1H-pyrazol-4-yl)amino)pyrimidin-5-yl)ethyl)-5-methoxy-N-methylbenzamide]	284 nM	952 nM
5 nM	2 nM	3 nM	4 nM	CONC(=O)c1cc(COc2cnc(Nc3cnn(C)c3)nc2)c(Cl)c(OC)c1 [Compound 185]	2 nM	5 nM
8 nM	75 nM	6 nM	8 nM	CNC(=O)c1cc(CCc2cnc(Nc3cnn([C@@H]4CCCNC4)c3)nc2)c(F)c(OC)c1 [Compound 159, (R)-4-fluoro-3-methoxy-N-methyl-5-(2-(2-(1-(piperidin-3-yl)-1H-pyrazol-4-ylamino)pyrimidin-5-yl)ethyl)benzamide]	290 nM	759 nM
6 nM	19 nM	5 nM	9 nM	CNC(=O)c1cc(CCc2cnc(Nc3cnn(C4CCN(C)CC4)c3)nc2)c(Cl)c(OC)c1 [Compound 177]	25 nM	86 nM

Continued, compound first:

SMILES	IC50 (Recombinant human FGFR1)	IC50 (SNU-16)	IC50 (Recombinant human FGFR2)	IC50 (FGFR3 kinase)	IC50 (KG-1)	IC50 (RT-112)
CNC(=O)c1cc(CCc2cnc(Nc3ccc4nnc(C)n4c3)nc2)c(F)c(OC)c1 [Compound 69]	42 nM	85 nM	20 nM	42 nM	268 nM	337 nM
CNC(=O)c1cc(CCc2cnc(Nc3cnn(C(F)F)c3)nc2)c(Cl)c(OC)c1 [Compound 149]	15 nM	17 nM	8 nM	33 nM	67 nM	21 nM
CNC(=O)c1cc(CCc2cnc(Nc3ccc(N4C[C@@H](C)N[C@@H](C)C4)cc3)nc2)c(Cl)c(OC)c1 [Compound 79, 4-chloro-3-(2-(2-((4-((3S,5R)-3,5-dimethylpiperazin-1-yl)phenyl)amino)pyrimidin-5-yl)ethyl)-5-methoxy-N-methylbenzamide]	6 nM	14 nM	6 nM	6 nM	13 nM	34 nM
CCN(CC)CCn1cc(Nc2ncc(CCc3cc(C(=O)NC)cc(OC)c3Cl)cn2)cn1 [Compound 86]	17 nM	16 nM	10 nM	10 nM	42 nM	12 nM
CCN1CCN(c2ccc(Nc3ncc(CCc4cc(C(=O)NC)cc(OC)c4C)cn3)cc2)CC1 [Compound 39]	43 nM	71 nM	41 nM	43 nM	49 nM	342 nM
CNC(=O)c1cc(CCc2cnc(Nc3cnn(CCN4CCN(C)CC4)c3)nc2)c(F)c(OC)c1 [Compound 45]	14 nM	34 nM	7 nM	10 nM	388 nM	94 nM
CNC(=O)c1cc(CCc2cnc(Nc3nc(C4CC4)cs3)nc2)c(Cl)c(OC)c1 [Compound 71]	126 nM	708 nM	53 nM	591 nM	398 nM	101 nM
CNC(=O)c1cc(CCc2cnc(Nc3cnn(CCCN(C)C)c3)nc2)c(F)c(OC)c1 [Compound 133]	20 nM	51 nM	8 nM	16 nM	345 nM	713 nM
CNC(=O)c1cc(CCc2cnc(Nc3cnn(C4COC4)c3)nc2)c(F)c(OC)c1 [Compound 117]	28 nM	26 nM	5 nM	13 nM	31 nM	188 nM
CNC(=O)c1cc(CCc2cnc(Nc3ccc(CN4CCOCC4)nc3)nc2)c(F)c(OC)c1 [Compound 98]	32 nM	24 nM	15 nM	26 nM	48 nM	225 nM
CNC(=O)c1cc(CCc2cnc(Nc3ccc(-n4cccn4)cc3)nc2)c(F)c(OC)c1 [Compound 35]	30 nM	157 nM	9 nM	83 nM	189 nM	455 nM
CNC(=O)c1cc(CCc2cnc(Nc3cnn(CC4(C)COC4)c3)nc2)c(F)c(OC)c1 [Compound 131]	19 nM	13 nM	8 nM	11 nM	37 nM	131 nM
CONC(=O)c1cc(CCc2cnc(Nc3ccccc3)nc2)cc(OC)c1 [Compound 22]	9 nM	26 nM	5 nM	20 nM	28 nM	84 nM
CCn1cc(Nc2ncc(CCc3c(F)c(C(=O)NC)cc(OC)c3Cl)cn2)cn1 [Compound 80]	24 nM	39 nM	16 nM	19 nM	33 nM	24 nM
CCn1ncc(Nc2ncc(CCc3cc(C(=O)NC)cc(OC)c3F)cn2)c1C [Compound 110]	68 nM	46 nM	14 nM	24 nM	95 nM	197 nM
CCN1CCC(Cn2cc(Nc3ncc(CCc4cc(C(=O)NC)cc(OC)c4Cl)cn3)cn2)CC1 [Compound 155]	10 nM	18 nM	4 nM	4 nM	461 nM	12 nM
CNC(=O)c1cc(CCc2cnc(Nc3cnn(CC(=O)N4CCCC4)c3)nc2)c(F)c(OC)c1 [Compound 143]	41 nM	100 nM	7 nM	203 nM	803 nM	991 nM
CCn1cc(Nc2ncc(CCc3cc(C(=O)NC)cc(OC)c3F)cn2)c(C)n1 [Compound 111]	107 nM	127 nM	33 nM	61 nM	162 nM	570 nM
CNC(=O)c1cc(CCc2cnc(Nc3cnn(CCS(C)(=O)=O)c3)nc2)c(Cl)c(OC)c1 [Compound 153]	15 nM	59 nM	7 nM	16 nM	177 nM	240 nM
CNC(=O)c1cc(CCc2cnc(Nc3cnn(C(F)F)c3)nc2)c(F)c(OC)c1 [Compound 116]	27 nM	45 nM	10 nM	28 nM	20 nM	19 nM
CNC(=O)c1cc(CCc2cnc(Nc3ccc4c(C)n(C)nc4c3)nc2)c(Cl)c(OC)c1 [Compound 84]	19 nM	239 nM	7 nM	16 nM	248 nM	122 nM
